Measured values as given in publication PMC11024795 (GeoHealth, 2024).
Where two headings read alike, the source gives them in different places.

Assays:
[1] = tested on: IL-1β and IL-18 in extracellular medium of BV2 cells; assay: ELISA of IL-1β and IL-18 in culture supernatants; type: cell-based; conditions: P < 0.0001; for expression of IL-1β and IL-18 in the extracellular medium vs 0 μM OPPs: ELISA, BV2 cells, OPP 125, 250, 500 μM, 24 hr
BV2 cells [2] = assay: IC50 of OPPs-induced cytotoxicity in BV2 cells; type: cell-based; conditions: for IC50: read-out: IC50 values of OPPs in BV2 cells
BV2 cells [3] = assay: LDH-based cytotoxicity assay; type: cell-based; conditions: 125-1,000 μM, 24 hr, significant concentrations differ per compound
[4] = target: hNLRP3 LRR recombinant protein (Homo sapiens, UniProt Q96P20); assay: Surface plasmon resonance; type: binding; conditions: for kon: read-out: association constant k a
Sequence of hNLRP3 LRR recombinant protein (Q96P20 742-991 limits assumed): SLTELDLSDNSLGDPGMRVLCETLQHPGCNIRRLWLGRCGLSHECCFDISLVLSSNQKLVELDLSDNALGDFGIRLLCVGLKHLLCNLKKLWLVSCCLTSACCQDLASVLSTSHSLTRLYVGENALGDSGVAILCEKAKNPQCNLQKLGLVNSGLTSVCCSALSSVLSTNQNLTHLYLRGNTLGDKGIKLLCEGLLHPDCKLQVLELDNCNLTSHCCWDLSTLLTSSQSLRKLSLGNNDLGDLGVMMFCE

BV2 cells [5] = assay: CCK-8 cell viability assay; type: cell-based; conditions: CCK-8, 125-1,000 μM, 24 hr; significant concentrations differ per compound
[6] = tested on: NLRP3, ASC, Caspase-1, IL-1β, IL-18 mRNA in BV2 cells; assay: RT-qPCR of NLRP3 inflammasome and inflammatory cytokine mRNA; type: cell-based; conditions: for expression of NLRP3, ASC, Caspase-1, IL-1β, IL-18 mRNA vs 0 μM OPPs / ASC mRNA expression, MCC950 intervention vs OPP alone / IL-1β mRNA expression, MCC950 intervention vs OPP alone / NLRP3 mRNA expression, MCC950 pre-treatment vs OPP alone: BV2 cells; for expression of NLRP3, ASC, Caspase-1, IL-1β, IL-18 mRNA vs 0 μM OPPs: 500 μM OPP, P < 0.0001; for ASC mRNA expression, MCC950 intervention vs OPP alone / IL-1β mRNA expression, MCC950 intervention vs OPP alone / NLRP3 mRNA expression, MCC950 pre-treatment vs OPP alone: OPP 500 μM
[7] = SPR, Biacore 8K, CM5 chip, 25°C

| SMILES | expression of IL-1β and IL-18 in the extracellular medium vs 0 μM OPPs [1] | IC50 (BV2 cells [2]; Mus musculus, BV-2, 24 h) [µM] | cytotoxicity (LDH) in BV2 cells vs 0 μM OPPs (BV2 cells [3]) | Kd [4] [µM] | dissociation constant k d [4, 7] [s⁻¹] | kon [4] [M⁻¹ s⁻¹] | cell viability of BV2 cells vs 0 μM OPPs (BV2 cells [5]) | Caspase-1 and IL-18 mRNA expressions, MCC950 intervention vs OPP alone [6] | expression of NLRP3, ASC, Caspase-1, IL-1β, IL-18 mRNA vs 0 μM OPPs [6] | ASC mRNA expression, MCC950 intervention vs OPP alone ([6]; MCC950 10 μM) | IL-1β mRNA expression, MCC950 intervention vs OPP alone ([6]; MCC950 10 μM) | NLRP3 mRNA expression, MCC950 pre-treatment vs OPP alone ([6]; MCC950 10 μM) | IC50 (BV2 cells [2]; BV2 cells, OPPs 24 hr) [µM] | association constant k a [4, 7] [M⁻¹ s⁻¹] | Kd ([4]; read-out: affinity constant K D, SPR, Biacore 8K, CM5 chip, 25°C) [µM] | IL-1β and IL-18 expression in the extracellular medium of OPPs-treated BV2 cells ([1]; MCC950 10 μM vs OPPs treatment (125, 250, 500 μM)) | cytotoxicity induced by OPPs in BV2 cells (BV2 cells [2]; MCC950 10 μM intervention, from IC50 shift) | activation of the NLRP3 inflammasome and associated inflammatory cytokine mRNA expression in OPPs-treated BV2 cells ([6]; MCC950 10 μM, OPPs 500 μM) | affinity constant K D [4, 7] |
| --- | --- | --- | --- | --- | --- | --- | --- | --- | --- | --- | --- | --- | --- | --- | --- | --- | --- | --- | --- |
| COP(=O)(OC)OC=C(Cl)Cl [dichlorvos] | significantly increased | 274 | significantly increased | 1460 | 0.00489 | 3.35 | significantly decreased | significantly decreased | significantly increased | decreased | decreased | significant decrease | – | – | – | – | – | – | – |
| CCOP(=O)(OCC)Oc1ccc([N+](=O)[O-])cc1 [paraoxon] | significantly increased | – | significantly increased | – | 0.00461 | – | significantly decreased | significantly decreased | significantly increased | decreased | decreased | significant decrease | 551 | 14.2 | – | – | – | – | – |
| COP(=O)(OC)OC(Br)C(Cl)(Cl)Br (stereo not shown) [dibrom] | significantly increased | – | – | – | 0.206 | – | – | significantly decreased | significantly increased | decreased | decreased | significant decrease | 585 | 76.5 | 2690 | – | – | – | – |
| CC(C)(O)c1coc(S(=O)(=O)NC(=O)Nc2c3c(cc4c2CCC4)CCC3)c1 [MCC950, reference compound] | – | – | – | – | – | – | – | – | – | – | – | – | – | – | – | significantly reduced | markedly decrease | reduced | – |
| CNC(=O)CSP(=S)(OC)OC [dimethoate] | significantly increased | – | significantly increased | 89.8 | 0.00529 | 58.9 | significantly decreased | significantly decreased | significantly increased | decreased | decreased | significant decrease | – | – | – | – | – | – | – |
| COP(=S)(OC)Oc1ccc(SC)c(C)c1 [fenthion] | significantly increased | 2160 | significantly increased | – | – | – | significantly decreased | significantly decreased | significantly increased | decreased | decreased | significant decrease | – | – | – | – | – | – | No obvious binding |
| COP(=O)(OC)C(O)C(Cl)(Cl)Cl (stereo not shown) [dipterex] | significantly increased | – | significantly increased | – | – | – | significantly decreased | significantly decreased | significantly increased | decreased | decreased | significant decrease | 410 | – | – | – | – | – | No obvious binding |
